The results in this text go back to patent publication US9770026B2, “Substituted pyrimidine compound and uses thereof” (Shenyang Sinochem Agrochemicals R&D Co., Ltd., priority 2012, dated 2017).

SMILES strings stand for the structures. Like-named read-outs stand apart in the source and are kept apart here.

Experiment [1] concerns Green peach aphids (Myzus Persicae Sulzer). The experiment can be described thus: bioactivity test against green peach aphid, airbrush foliar spray. In kind it is in vivo. Particulars: Myzus persicae, foliar, 48 h. The method, boiled down: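 Death rate was scored at 48 hrs, held at 25±1 C and 60±5% RH, following airbrush foliar spray (0.5 mL, 10 psi) onto cabbage leaf discs bearing about 15-30 aphids. Test solutions: compound dissolved in 1:1 acetone:methanol, brought to concentration with 0.1% tween 80 water.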

The test system of experiment [2] is corn rust. The experiment can be described thus: protectant activity in vivo against corn rust. Particulars: Zea mays, 168 h.
In experiment [3] the test system is cucumber gray mold. The experiment can be described thus: fungicidal activity in vitro (inhibition rate) against cucumber gray mold. In kind it is cell-based. Particulars: read-out: inhibition rate against cucumber gray mold.
The subject of experiment [4] is armyworm. The experiment can be described thus: bioactivity test against armyworm, airbrush spray. Particulars: 72 h. The class given is in vivo.
Experiment [5] relates to cucumber downy mildew. As to the kind of experiment: protectant activity in vivo against cucumber downy mildew. Particulars: Cucumis sativus, 168 h; for pest or weed control at 25 µg/mL: read-out: control effect against cucumber downy mildew (%), 25 mg/L; for pest or weed control at 50 µg/mL: read-out: control effect against cucumber downy mildew (%), 50 mg/L; for pest or weed control at 100 µg/mL: read-out: control effect against cucumber downy mildew (%), 100 mg/L.

Experiment [6] concerns carmine spider mite. The experiment can be described thus: bioactivity test against carmine spider mite, airbrush spray. Particulars: Tetranychus cinnabarinus, 72 h. The class given is in vivo. The method, boiled down:
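Broadbean seedlings infested with adult mites were sprayed with compound (acetone/methanol stock diluted in 0.1% Tween 80 water) by airbrush at 0.7 kg/cm^2, 0.5 ml. Three replicates were run. Mortality was scored after 72 hrs.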

Experiment [7] relates to rice blast. The experiment can be described thus: microbe, parasite or virus in culture. In kind it is cell-based. Particulars: Pyricularia oryzae, read-out: inhibition rate against rice blast, 25 ppm, in vitro.
The test system of experiment [8] is Diamond back moth. As to the kind of experiment: insecticidal activity against diamond back moth, airbrush spray. The class given is in vivo. Particulars: 72 h, 600 ppm, mortality after 72 hrs; read-out: control (test results against diamond back moth). The essentials: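 Airbrush leaf-disc spray test: both faces of 2 cm cabbage discs received 0.5 ml of test solution at 0.7 kg/cm^2. Solutions were made in acetone:methanol (1:1) and brought to concentration with 0.1% Tween 80 in water. Ten second-instar larvae per disc, triplicates, were held at 25° C and 60˜70% R.H., with mortality recorded at 72 hrs.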

Experiment [9] deals with wheat powdery mildew. As to the kind of experiment: protectant activity in vivo against wheat powdery mildew. Particulars: Triticum aestivum, 168 h.
Setting [10] is: 10 mg/L, contrastive test, read-out: Insecticidal activity against peach aphid (%).
The mark [11] stands for this setting: 100 mg/L, contrastive test, read-out: Insecticidal activity against peach aphid (%).
Setting [12] is: 600 mg/L, contrastive test, read-out: Insecticidal activity against peach aphid (%).
[13] abbreviates: read-out: control effect against cucumber downy mildew (%), 400 mg/L, protectant activity.
[14] abbreviates: read-out: Insecticidal activity against peach aphid (%).
The mark [15] stands for this setting: read-out: Insecticidal activity against carmine spider mite (% ).

For the compound `CCc1ncnc(NCc2ccc(Oc3ccc(C(F)(F)F)cc3)cc2)c1Cl` [CK54, reference compound], the pest or weed control at 10 µg/mL in experiment [1] (setting [10]) is 34%. Further, the pest or weed control at 100 µg/mL in experiment [1] (setting [11]) came to 100%; in experiment [2] (read-out: control effect against corn rust (%), 100 mg/L, protectant activity) it was 60%; in experiment [5] (protectant activity), 90%. In addition, the pest or weed control at 600 µg/mL in experiment [1] (setting [12]) is 100%; in experiment [4] (600 mg/L, read-out: Insecticidal activity against armyworm (%)), 67%. For the same compound, the pest or weed control at 6.25 µg/mL in [2] (read-out: control effect against corn rust (%), 6.25 mg/L, protectant activity) was determined as 0%. The pest or weed control at 25 µg/mL in experiment [2] (read-out: control effect against corn rust (%), 25 mg/L, protectant activity) turned out to be 30%; in experiment [5] (protectant activity), 65%. The pest or weed control at 400 µg/mL in experiment [2] (read-out: control effect against corn rust (%), 400 mg/L, protectant activity) was found to be 100%; in experiment [5] (setting [13]), 100%. Further, in experiment [3] (25 ppm, in vitro), the inhibition (in general, the drop in the measured response relative to a control, in per cent) at 25 ppm was 0%. For the same compound, the pest or weed control at 50 µg/mL in [5] (protectant activity) is 80%.
For `CC(Cl)c1ncnc(NCCc2ccc(Oc3ccc(Cl)nn3)cc2)c1Cl` (stereo not drawn) [CK62, reference compound], the inhibition at 25 ppm in experiment [3] (25 ppm, in vitro) was below 50%. Besides, in [5] (setting [13]), the pest or weed control at 400 µg/mL stood at 80%. Besides, the pest or weed control at 600 µg/mL in experiment [6] (600 mg/L, contrastive test, read-out: Insecticidal activity against carmine spider mite (% )) was found to be 0%.
As to `COc1cc(CCNc2ncnc(C(F)F)c2Cl)ccc1Oc1ccc(Cl)cc1` [II-10583], the pest or weed control at 10 µg/mL in [1] (setting [10]) is 100%. Besides, the pest or weed control at 100 µg/mL came out at 100% in [1] (setting [11]); 100% in [9] (read-out: control effect against wheat powdery mildew (%), 100 mg/L, protectant activity); 100% in experiment [5] (protectant activity). Further, in [1] (setting [12]), the pest or weed control at 600 µg/mL stood at 100%. Also, the pest or weed control at 10 ppm in experiment [1] (10 ppm, death rate after 48 hrs) was determined as 100%. For the same compound, the pest or weed control at 100 ppm is 100% in experiment [1] (100 ppm, death rate after 48 hrs); 100% in [2] (read-out: protectant activity against corn rust in vivo, 100 ppm); 100% in [9] (read-out: protectant activity against wheat powdery mildew in vivo, 100 ppm); 100% in experiment [5] (read-out: protectant activity against cucumber downy mildew in vivo, 100 ppm). Also, the pest or weed control at 600 ppm in [1] (600 ppm, death rate after 48 hrs) turned out to be 100%; in experiment [4] (600 ppm, mortality after 72 h) it was 100%; in experiment [8] it was 100%; in [6] (600 ppm, mortality after 72 hrs), 100%. Besides, the pest or weed control at 25 ppm was 80 to 99% in experiment [2] (read-out: protectant activity against corn rust in vivo, 25 ppm); 100% in experiment [9] (read-out: protectant activity against wheat powdery mildew in vivo, 25 ppm); 80 to 99% in [5] (read-out: protectant activity against cucumber downy mildew in vivo, 25 ppm). In addition, the pest or weed control at 400 ppm in experiment [2] (read-out: protectant activity against corn rust in vivo, 400 ppm) is 100%; in experiment [9] (read-out: protectant activity against wheat powdery mildew in vivo, 400 ppm) it was 100%; in experiment [5] (read-out: protectant activity against cucumber downy mildew in vivo, 400 ppm), 100%. Besides, the inhibition at 25 ppm in experiment [7] fell in the range of 80 to 99%. For the same compound, the pest or weed control at 6.25 µg/mL is 100% in experiment [9] (read-out: control effect against wheat powdery mildew (%), 6.25 mg/L, protectant activity) and 95% in [5] (read-out: control effect against cucumber downy mildew (%), 6.25 mg/L, protectant activity). Moreover, the pest or weed control at 25 µg/mL in experiment [9] (read-out: control effect against wheat powdery mildew (%), 25 mg/L, protectant activity) worked out at 100%; in [5] (protectant activity), 95%. In addition, the pest or weed control at 400 µg/mL stood at 100% in experiment [9] (read-out: control effect against wheat powdery mildew (%), 400 mg/L, protectant activity) and 100% in experiment [5] (setting [13]). Besides, the pest or weed control at 6.25 ppm in experiment [9] (read-out: protectant activity against wheat powdery mildew in vivo, 6.25 ppm) was 100%; in [5] (read-out: protectant activity against cucumber downy mildew in vivo, 6.25 ppm) it was 80 to 99%. In addition, the pest or weed control at 12.5 µg/mL in experiment [5] (read-out: control effect against cucumber downy mildew (%), 12.5 mg/L, protectant activity) came to 95%. Further, in experiment [5] (protectant activity), the pest or weed control at 50 µg/mL stood at 100%. In addition, the pest or weed control at 12.5 ppm in experiment [5] (read-out: protectant activity against cucumber downy mildew in vivo, 12.5 ppm) fell in the range of 80 to 99%. The pest or weed control at 50 ppm in experiment [5] (read-out: protectant activity against cucumber downy mildew in vivo, 50 ppm) lay in the range of 80 to 99%.
As to `CC(F)c1ncnc(NCCc2ccc(OC(F)(F)F)cc2)c1Cl` (stereo not drawn) [flufenerim, reference compound], in [1] (setting [14]), the pest or weed control at 1.25 µg/mL was 37%, the pest or weed control at 2.5 µg/mL amounted to 90%, the pest or weed control at 5 µg/mL was found to be 100% and the pest or weed control at 10 µg/mL is 100%. Moreover, in experiment [1] (setting [14]), the pest or weed control at 100 µg/mL was determined as 100% and the pest or weed control at 600 µg/mL is 100%. Besides, the inhibition at 25 ppm in experiment [3] was 0%. Besides, in [5] (read-out: control effect against cucumber downy mildew (%)), the pest or weed control at 400 µg/mL is 0%. In addition, in [6] (setting [15]), the pest or weed control at 10 µg/mL was 72%, the pest or weed control at 100 µg/mL amounted to 100% and the pest or weed control at 600 µg/mL came out at 100%.
